Assay results: article PMC9067983, “Identification of highly selective type II kinase inhibitors with chiral peptidomimetic tails” (Journal of Enzyme Inhibition and Medicinal Chemistry, 2022)
Where a SMILES comes first, the peptide text is derived from it. [ ]: non-standard residue; d: D form. The star is where a group is joined. X1 = Cc1ccc(Nc2ncc3c(n2)N(C)C(=O)N(c2cc(C(=O)*)ccc2C)C3)cn1; Nva = CCC[C@H](N)C(=O)O; Ac4c = NC1(C(=O)O)CCC1; Aib = CC(C)(N)C(=O)O

Legend:
c-Src = molecular target: T1, c-Src (Homo sapiens, UniProt P12931); assay: In vitro kinase assay (IC50); type: biochemical
T1 construct: purchased Reaction Biology Corp
T1 sequence (P12931 whole entry): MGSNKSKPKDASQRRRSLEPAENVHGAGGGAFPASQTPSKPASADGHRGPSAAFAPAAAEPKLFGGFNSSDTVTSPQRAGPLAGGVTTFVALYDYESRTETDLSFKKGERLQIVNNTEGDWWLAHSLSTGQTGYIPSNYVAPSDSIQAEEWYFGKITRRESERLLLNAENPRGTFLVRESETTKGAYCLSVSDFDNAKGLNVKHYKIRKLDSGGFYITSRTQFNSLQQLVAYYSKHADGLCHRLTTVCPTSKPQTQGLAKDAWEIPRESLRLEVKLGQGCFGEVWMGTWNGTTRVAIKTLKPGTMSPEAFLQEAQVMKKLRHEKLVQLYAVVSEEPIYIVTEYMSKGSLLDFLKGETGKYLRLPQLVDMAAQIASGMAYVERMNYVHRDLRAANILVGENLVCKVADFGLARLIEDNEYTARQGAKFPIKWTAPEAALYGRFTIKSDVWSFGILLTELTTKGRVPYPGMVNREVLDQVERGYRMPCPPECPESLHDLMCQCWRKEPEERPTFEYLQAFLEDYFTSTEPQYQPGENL
Procedure: (§1) Full panel kinase profiling and kinase IC50 measurement were performed by using Reaction Biology Corp. (San Diego, USA).

Lck [1] = molecular target: T2, Lck (Homo sapiens, UniProt P06239); assay: In vitro kinase assay (IC50); type: biochemical
T2 construct: purchased Reaction Biology Corp
T2 sequence (P06239 whole entry): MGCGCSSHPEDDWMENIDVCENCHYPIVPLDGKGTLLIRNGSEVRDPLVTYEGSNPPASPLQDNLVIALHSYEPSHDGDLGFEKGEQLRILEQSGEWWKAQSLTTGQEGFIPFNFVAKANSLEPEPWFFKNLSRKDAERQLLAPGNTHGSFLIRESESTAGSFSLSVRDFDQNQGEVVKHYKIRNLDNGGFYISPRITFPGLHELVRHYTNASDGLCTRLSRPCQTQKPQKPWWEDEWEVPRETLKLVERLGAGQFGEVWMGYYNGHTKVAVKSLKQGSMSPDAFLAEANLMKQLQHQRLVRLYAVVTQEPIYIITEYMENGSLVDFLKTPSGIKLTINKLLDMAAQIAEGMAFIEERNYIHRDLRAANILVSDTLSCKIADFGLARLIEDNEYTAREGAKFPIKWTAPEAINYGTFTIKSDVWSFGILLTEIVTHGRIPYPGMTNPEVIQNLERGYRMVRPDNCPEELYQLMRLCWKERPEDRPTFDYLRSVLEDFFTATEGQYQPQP
Procedure: as §1

Abl1 = molecular target: T3, Abl1 (Homo sapiens, UniProt P00519); assay: In vitro kinase assay (IC50); type: biochemical
T3 construct: purchased Reaction Biology Corp
T3 sequence (P00519 whole entry): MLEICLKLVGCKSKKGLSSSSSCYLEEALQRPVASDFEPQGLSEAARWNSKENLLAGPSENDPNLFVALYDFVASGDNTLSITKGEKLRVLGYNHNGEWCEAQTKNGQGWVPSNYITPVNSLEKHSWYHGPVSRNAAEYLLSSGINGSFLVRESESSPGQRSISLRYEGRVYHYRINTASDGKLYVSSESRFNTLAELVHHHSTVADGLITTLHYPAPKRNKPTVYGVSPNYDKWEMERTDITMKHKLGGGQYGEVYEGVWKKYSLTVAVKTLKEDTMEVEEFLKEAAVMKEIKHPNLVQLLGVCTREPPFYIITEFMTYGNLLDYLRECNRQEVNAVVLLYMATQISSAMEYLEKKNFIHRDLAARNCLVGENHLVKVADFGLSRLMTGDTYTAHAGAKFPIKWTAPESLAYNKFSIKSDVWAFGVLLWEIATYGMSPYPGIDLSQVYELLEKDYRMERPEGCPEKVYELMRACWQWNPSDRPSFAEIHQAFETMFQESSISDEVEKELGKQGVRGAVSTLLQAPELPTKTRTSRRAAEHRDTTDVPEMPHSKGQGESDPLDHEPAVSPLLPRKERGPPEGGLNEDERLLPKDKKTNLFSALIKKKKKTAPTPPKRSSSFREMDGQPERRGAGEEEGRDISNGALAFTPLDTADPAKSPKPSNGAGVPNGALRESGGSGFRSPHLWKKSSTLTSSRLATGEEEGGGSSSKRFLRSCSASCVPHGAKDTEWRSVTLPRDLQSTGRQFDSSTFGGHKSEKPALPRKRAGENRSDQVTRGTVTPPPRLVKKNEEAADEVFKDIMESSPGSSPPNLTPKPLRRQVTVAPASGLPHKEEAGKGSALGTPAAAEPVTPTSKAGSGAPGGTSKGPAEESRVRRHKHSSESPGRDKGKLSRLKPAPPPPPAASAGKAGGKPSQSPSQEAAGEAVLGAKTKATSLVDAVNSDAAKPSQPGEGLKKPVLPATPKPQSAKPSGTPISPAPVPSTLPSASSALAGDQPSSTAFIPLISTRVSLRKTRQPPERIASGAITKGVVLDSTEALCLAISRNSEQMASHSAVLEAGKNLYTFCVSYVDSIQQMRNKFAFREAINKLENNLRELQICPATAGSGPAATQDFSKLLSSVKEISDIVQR
Procedure: as §1

p38a = molecular target: T4, p38a (Homo sapiens, UniProt Q16539); assay: In vitro kinase assay (IC50); type: biochemical
T4 construct: purchased Reaction Biology Corp
T4 sequence (Q16539 whole entry): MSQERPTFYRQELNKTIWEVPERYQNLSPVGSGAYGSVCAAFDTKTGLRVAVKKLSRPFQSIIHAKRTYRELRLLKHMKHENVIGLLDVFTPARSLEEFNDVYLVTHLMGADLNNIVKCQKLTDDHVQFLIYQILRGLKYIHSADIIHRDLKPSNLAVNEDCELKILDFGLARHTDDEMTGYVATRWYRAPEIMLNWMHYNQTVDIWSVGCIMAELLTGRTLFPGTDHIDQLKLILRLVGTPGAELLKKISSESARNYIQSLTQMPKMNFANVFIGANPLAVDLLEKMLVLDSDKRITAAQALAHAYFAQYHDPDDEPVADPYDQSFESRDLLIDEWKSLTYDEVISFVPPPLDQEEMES
Procedure: as §1

Lck [2] = molecular target: T2, Lck; assay: Biochemical IC50 on Lck at Km and 1 mM ATP
Procedure: as §1

Structure (SMILES)	IC50 (c-Src)	IC50 (Lck [1])	IC50 (Abl1)	IC50 (p38a)	selectivity for Lck over c-Src (Lck [1])	IC50 (Lck [2]; ATP conc. 14 µM (Km))	IC50 (Lck [2]; ATP conc. 1 mM)	mode of inhibition (Lck [2]; IC50 at Km vs 1 mM ATP)
Cc1ccc(Nc2ncc3c(n2)N(C)C(=O)N(c2cc(NC(=O)c4ccc5c(c4)N(Cc4ccccc4)C(=O)[C@H](CC(C)C)N=C5c4ccccc4)ccc2C)C3)cn1 [11b, (S)-1-benzyl-3-isobutyl-N-(4-methyl-3-(1-methyl-7-((6-methylpyridin-3-yl)amino)-2-oxo-1,4-dihydropyrimido[4,5-d]pyrimidin-3(2H)-yl)phenyl)-2-oxo-5-phenyl-2,3-dihydro-1H-benzo[e][1,4]diazepine-8-carboxamide]	0.41 µM	0.0373 µM	0.453 µM	3.43 µM	over 10 fold	510 nM	> 100000 nM	ATP competitive kinase inhibitors
CCC[C@H](NC(=O)c1ccc(C)c(N2Cc3cnc(Nc4ccc(C)nc4)nc3N(C)C2=O)c1)C(=O)N1CCC[C@H]1C(=O)NC(C)(C)C(=O)N[C@@H](CC(C)C)C(=O)N(C)C [7t, (S)-N-(1-(((S)-1-(dimethylamino)-4-methyl-1-oxopentan-2-yl)amino)-2-methyl-1-oxopropan-2-yl)-1-((S)-2-(4-methyl-3-(1-methyl-7-((6-methylpyridin-3-yl)amino)-2-oxo-1,4-dihydropyrimido[4,5-d]pyrimidin-3(2H)-yl)benzamido)pentanoyl)pyrrolidine-2-carboxamide] (X1-[Nva]P[Aib]L-NMe2)	0.477 µM	0.0708 µM						
Cc1ccc(Nc2ncc3c(n2)N(C)C(=O)N(c2cc(C(=O)N[C@H](C(=O)N4CCC[C@H]4C(=O)NC4(C(=O)N[C@@H](CC(C)C)C(=O)N(C)C)CCC4)C(C)C)ccc2C)C3)cn1 [7f, (S)-N-(1-(((S)-1-(dimethylamino)-4-methyl-1-oxopentan-2-yl)carbamoyl)cyclobutyl)-1-((4-methyl-3-(1-methyl-7-((6-methylpyridin-3-yl)amino)-2-oxo-1,4-dihydropyrimido[4,5-d]pyrimidin-3(2H)-yl)benzoyl)-L-valyl)pyrrolidine-2-carboxamide] (X1-VP[Ac4c]L-NMe2)	0.658 µM	0.0275 µM						
Cc1ccc(Nc2ncc3c(n2)N(C)C(=O)N(c2cc(C(=O)N[C@H](C(=O)N4CCC[C@@H]4C(=O)NC(C)(C)C(=O)N[C@@H](CC(C)C)C(=O)N(C)C)C(C)C)ccc2C)C3)cn1 [7b, (R)-N-(1-(((S)-1-(dimethylamino)-4-methyl-1-oxopentan-2-yl)amino)-2-methyl-1-oxopropan-2-yl)-1-((4-methyl-3-(1-methyl-7-((6-methylpyridin-3-yl)amino)-2-oxo-1,4-dihydropyrimido[4,5-d]pyrimidin-3(2H)-yl)benzoyl)-L-valyl)pyrrolidine-2-carboxamide] (X1-V[dP][Aib]L-NMe2)	0.379 µM	0.174 µM	0.317 µM	2.05 µM				
COCCN1C(=O)[C@H](CC(C)C)N=C(c2ccccc2)c2ccc(C(=O)Nc3ccc(C)c(N4Cc5cnc(Nc6ccc(C)nc6)nc5N(C)C4=O)c3)cc21 [11n, (S)-3-isobutyl-1-(2-methoxyethyl)-N-(4-methyl-3-(1-methyl-7-((6-methylpyridin-3-yl)amino)-2-oxo-1,4-dihydropyrimido[4,5-d]pyrimidin-3(2H)-yl)phenyl)-2-oxo-5-phenyl-2,3-dihydro-1H-benzo[e][1,4]diazepine-8-carboxamide]	0.0486 µM	0.016 µM						

These reach a lower IC50 (c-Src). Values come first.

IC50 (c-Src)	IC50 (Lck [1])	IC50 (Abl1)	IC50 (p38a)	Structure (SMILES)	selectivity for Lck over c-Src (Lck [1])	IC50 (Lck [2]; ATP conc. 14 µM (Km))	IC50 (Lck [2]; ATP conc. 1 mM)	mode of inhibition (Lck [2]; IC50 at Km vs 1 mM ATP)
0.0152 µM	0.00342 µM	0.0241 µM	0.101 µM	Cc1ccc(Nc2ncc3c(n2)N(C)C(=O)N(c2cc(NC(=O)c4ccc5c(c4)N(Cc4ccccc4)C(=O)[C@H](C)N=C5c4ccccc4)ccc2C)C3)cn1 [11d, (S)-1-benzyl-3-methyl-N-(4-methyl-3-(1-methyl-7-((6-methylpyridin-3-yl)amino)-2-oxo-1,4-dihydropyrimido[4,5-d]pyrimidin-3(2H)-yl)phenyl)-2-oxo-5-phenyl-2,3-dihydro-1H-benzo[e][1,4]diazepine-8-carboxamide]				
0.00284 µM	0.00117 µM	0.00464 µM	0.0149 µM	Cc1ccc(Nc2ncc3c(n2)N(C)C(=O)N(c2cc(NC(=O)c4ccc5c(c4)NC(=O)[C@H](C)N=C5c4ccccc4)ccc2C)C3)cn1 [11c, (S)-3-methyl-N-(4-methyl-3-(1-methyl-7-((6-methylpyridin-3-yl)amino)-2-oxo-1,4-dihydropyrimido[4,5-d]pyrimidin-3(2H)-yl)phenyl)-2-oxo-5-phenyl-2,3-dihydro-1H-benzo[e][1,4]diazepine-8-carboxamide]				
0.0204 µM	0.0085 µM	0.189 µM	1.83 µM	Cc1ccc(Nc2ncc3c(n2)N(C)C(=O)N(c2cc(NC(=O)c4ccc5c(c4)NC(=O)[C@H](Cc4ccccc4)N=C5c4ccccc4)ccc2C)C3)cn1 [11a, (S)-3-benzyl-N-(4-methyl-3-(1-methyl-7-((6-methylpyridin-3-yl)amino)-2-oxo-1,4-dihydropyrimido[4,5-d]pyrimidin-3(2H)-yl)phenyl)-2-oxo-5-phenyl-2,3-dihydro-1H-benzo[e][1,4]diazepine-8-carboxamide]				
0.0128 µM	0.0107 µM	0.0552 µM	0.25 µM	CC[C@@H](C)[C@H]1N=C(c2ccccc2)c2ccc(C(=O)Nc3ccc(C)c(N4Cc5cnc(Nc6ccc(C)nc6)nc5N(C)C4=O)c3)cc2NC1=O [11e, (R)-3-((R)-s-butyl)-N-(4-methyl-3-(1-methyl-7-((6-methylpyridin-3-yl)amino)-2-oxo-1,4-dihydropyrimido[4,5-d]pyrimidin-3(2H)-yl)phenyl)-2-oxo-5-phenyl-2,3-dihydro-1H-benzo[e][1,4]diazepine-8-carboxamide]				
0.00614 µM	0.0038 µM			C=CCCC1=N[C@@H](CC(=O)Nc2ccc(C)c(N3Cc4cnc(Nc5ccc(C)nc5)nc4N(C)C3=O)c2)C(=O)N(C)c2ccccc21 [11p, (S)-2-(5-(but-3-en-1-yl)-1-methyl-2-oxo-2,3-dihydro-1H-benzo[e][1,4]diazepin-3-yl)-N-(4-methyl-3-(1-methyl-7-((6-methylpyridin-3-yl)amino)-2-oxo-1,4-dihydropyrimido[4,5-d]pyrimidin-3(2H)-yl)phenyl)acetamide]				
0.00401 µM	0.00105 µM			CC1=N[C@@H](CC(C)C)C(=O)N(C)c2cc(C(=O)Nc3ccc(C)c(N4Cc5cnc(Nc6ccc(C)nc6)nc5N(C)C4=O)c3)ccc21 [11m, (S)-3-isobutyl-1,5-dimethyl-N-(4-methyl-3-(1-methyl-7-((6-methylpyridin-3-yl)amino)-2-oxo-1,4-dihydropyrimido[4,5-d]pyrimidin-3(2H)-yl)phenyl)-2-oxo-2,3-dihydro-1H-benzo[e][1,4]diazepine-8-carboxamide]				
